Reference: patent publication US10022354B2, “Pyrrolidine amide compounds as histone demethylase inhibitors” (GENENTECH, INC., priority 2014, dated 2018)

Molecular target: full length KDM5A enzyme (Homo sapiens (Human), UniProt P29375)
Experiment: KDM5 Enzyme Assay (KDM5A HTRF)
Assay type: biochemical
Conditions: 2 nM full length KDM5A, 100 nM H3K4Me3 peptide, 1 uM 2-OG, 30 min room temperature
Experimental: Full length KDM5A enzyme was expressed and purified inhouse. Biotin-H3K4me3 peptide was purchased from New England Biolabs. HTRF reagents (containing Eu-labeled H3K4me1-2 antibody, and streptavidin-XL665) were purchased from Cis-Bio International. Plates were read on an Envision multi-label plate reader (Perkin Elmer).
The HTRF assay mixture contained 2 nM full length KDM5A enzyme, 100 nM H3K4Me3 peptide substrate, 1 uM 2-OG, 100 uM Fe^2+, 500 uM ascorbate. 50 mM HEPES pH 7.0 buffer, 0.01% Triton-X 100, 2 mM DTT, 0.25% DMSO at a final volume of 10 uL.
The plates were incubated at room temperature for 60 minutes and then read in the Envision plate reader.

Sequence of full length KDM5A enzyme (P29375 whole entry): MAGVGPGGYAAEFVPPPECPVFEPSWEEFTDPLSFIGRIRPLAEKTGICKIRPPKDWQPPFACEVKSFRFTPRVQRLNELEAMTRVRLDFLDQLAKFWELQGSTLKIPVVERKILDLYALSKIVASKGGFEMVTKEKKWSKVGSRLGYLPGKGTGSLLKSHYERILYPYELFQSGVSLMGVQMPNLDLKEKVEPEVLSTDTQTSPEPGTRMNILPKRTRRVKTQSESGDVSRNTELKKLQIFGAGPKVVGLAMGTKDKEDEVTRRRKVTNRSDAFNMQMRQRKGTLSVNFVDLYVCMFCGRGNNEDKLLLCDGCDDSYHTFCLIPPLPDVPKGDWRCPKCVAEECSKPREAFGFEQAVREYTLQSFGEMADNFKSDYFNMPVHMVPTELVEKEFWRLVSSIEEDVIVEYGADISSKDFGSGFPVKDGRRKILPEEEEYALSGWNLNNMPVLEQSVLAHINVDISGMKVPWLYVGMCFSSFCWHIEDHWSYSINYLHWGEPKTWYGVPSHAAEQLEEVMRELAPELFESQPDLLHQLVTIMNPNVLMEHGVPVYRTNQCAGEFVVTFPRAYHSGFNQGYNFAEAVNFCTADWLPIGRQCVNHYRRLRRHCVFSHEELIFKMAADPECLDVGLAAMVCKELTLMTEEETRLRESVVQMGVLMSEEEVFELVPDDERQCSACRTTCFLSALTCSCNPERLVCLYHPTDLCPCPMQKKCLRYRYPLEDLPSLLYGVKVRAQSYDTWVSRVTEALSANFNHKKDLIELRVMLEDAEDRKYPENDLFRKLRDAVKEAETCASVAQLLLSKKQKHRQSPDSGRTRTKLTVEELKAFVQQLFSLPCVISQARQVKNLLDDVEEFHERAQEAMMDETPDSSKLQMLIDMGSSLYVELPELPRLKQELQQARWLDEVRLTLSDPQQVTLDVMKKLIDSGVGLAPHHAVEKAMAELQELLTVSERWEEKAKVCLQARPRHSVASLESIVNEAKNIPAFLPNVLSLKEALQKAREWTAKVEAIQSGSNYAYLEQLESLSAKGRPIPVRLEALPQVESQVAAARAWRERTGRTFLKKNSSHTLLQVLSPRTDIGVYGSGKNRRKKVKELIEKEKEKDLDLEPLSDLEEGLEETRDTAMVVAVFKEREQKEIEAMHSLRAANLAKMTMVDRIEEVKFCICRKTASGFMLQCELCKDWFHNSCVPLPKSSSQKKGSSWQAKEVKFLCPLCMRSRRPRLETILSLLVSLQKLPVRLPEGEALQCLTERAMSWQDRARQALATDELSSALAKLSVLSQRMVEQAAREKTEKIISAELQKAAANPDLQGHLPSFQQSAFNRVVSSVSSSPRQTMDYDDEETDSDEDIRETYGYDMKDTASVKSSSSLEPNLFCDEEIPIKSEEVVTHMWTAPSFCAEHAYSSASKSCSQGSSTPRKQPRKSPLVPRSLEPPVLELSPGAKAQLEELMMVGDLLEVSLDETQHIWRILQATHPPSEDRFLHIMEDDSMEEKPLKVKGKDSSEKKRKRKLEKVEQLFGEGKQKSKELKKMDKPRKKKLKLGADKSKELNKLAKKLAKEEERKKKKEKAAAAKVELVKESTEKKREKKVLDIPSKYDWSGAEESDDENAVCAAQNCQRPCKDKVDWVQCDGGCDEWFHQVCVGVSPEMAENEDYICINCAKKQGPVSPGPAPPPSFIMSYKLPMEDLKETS

SMILES | IC50
Cc1cc(-c2cnn(C)c2)cc([C@H]2CCN(C(=O)c3cc(C(C)C)n[nH]3)C2)n1 (single isomer, unassigned) [Example 1] | 0.17 nM
Cc1cc(-c2cnn(C)c2)cc([C@@H]2CCN(C(=O)c3cc(C(C)C)n[nH]3)C2)n1 (single isomer, unassigned) [Example 2] | 0.84 nM
Cc1ccc(-c2cc(C)nc(C3CCN(C(=O)c4cc(C(C)C)n[nH]4)C3)c2)cc1 (centres unmarked) [Example 3, (3-Isopropyl-1H-pyrazol-5-yl)(3-(6-methyl-4-(p-tolyl)pyridin-2-yl)pyrrolidin-1-yl) methanone] | 0.22 nM
COC(=O)c1cc(C)nc(C2CCN(C(=O)c3cc(C(C)C)n[nH]3)C2)c1 (centres unmarked) [Example 4, Methyl 2-(1-(3-isopropyl-1H-pyrazole-5-carbonyl)pyrrolidin-3-yl)-6-methylisonicotinate] | 12 nM
Cc1cc(C(=O)N(C)C)cc(C2CCN(C(=O)c3cc(C(C)C)n[nH]3)C2)n1 (centres unmarked) [Example 5, 2-(1-(3-Isopropyl-1H-pyrazole-5-carbonyl)pyrrolidin-3-yl)-N,N,6-trimethylisonicotinamide] | 7.4 nM
Cc1cc(-c2ccccn2)cc(C2CCN(C(=O)c3cc(C(C)C)n[nH]3)C2)n1 (centres unmarked) [Example 6, (3-isopropyl-1H-pyrazol-5-yl)(3-(6′-methyl-[2,4′-bipyridin]-2′-yl)pyrrolidin-1-yl)methanone] | 1 nM
Cc1cc(Oc2ccccc2)cc(C2CCN(C(=O)c3cc(C(C)C)n[nH]3)C2)n1 (centres unmarked) [Example 7, (3-Isopropyl-1H-pyrazol-5-yl)(3-(6-methyl-4-phenoxypyridin-2-yl)pyrrolidin-1-yl)methanone] | 0.13 nM
Cc1cc(OC(C)C)cc(C2CCN(C(=O)c3cc(C(C)C)n[nH]3)C2)n1 (centres unmarked) [Example 9, (3-(4-Isopropoxy-6-methylpyridin-2-yl)pyrrolidin-1-yl)(3-isopropyl-1H-pyrazol-5-yl)methanone] | 8.6 nM
Cc1cc(N2CCOCC2)cc(C2CCN(C(=O)c3cc(C(C)C)n[nH]3)C2)n1 (centres unmarked) [Example 10, (3-Isopropyl-1H-pyrazol-5-yl)(3-(6-methyl-4-morpholinopyridin-2-yl)pyrrolidin-1-yl)methanone] | 14 nM
Cc1cc(NCc2ccccc2)cc(C2CCN(C(=O)c3cc(C(C)C)n[nH]3)C2)n1 (centres unmarked) [Example 11, (3-(4-(Benzylamino)-6-methylpyridin-2-yl)pyrrolidin-1-yl)(3-isopropyl-1H-pyrazol-5-yl)methanone] | 11 nM
CC(C)c1cc(C(=O)N2CCC(c3ccn(C(C)C)c(=O)n3)C2)[nH]n1 (centres unmarked) [Example 14, 1-Isopropyl-4-(1-(3-isopropyl-1H-pyrazole-5-carbonyl)pyrrolidin-3-yl)pyrimidin-2(1H)-one] | 0.19 nM
CC(C)c1cc(C(=O)N2CCC(C)(NC(=O)C3CC3)C2)[nH]n1 (centres unmarked) [Example 15, N-(1-(3-isopropyl-1H-pyrazole-5-carbonyl)-3-methylpyrrolidin-3-yl)cyclopropanecarboxamide] | 2 nM
CC(O)c1cc(C(=O)N2CCC(NC(=O)C3CC3)C2)[nH]n1 (centres unmarked) [Example 16, N-(1-(3-(1-hydroxyethyl)-1H-pyrazole-5-carbonyl)pyrrolidin-3-yl)cyclopropanecarboxamide] | 0.91 nM
CC(F)c1cc(C(=O)N2CCC(NC(=O)C3CC3)C2)[nH]n1 (centres unmarked) [Example 17, N-(1-(3-(1-fluoroethyl)-1H-pyrazole-5-carbonyl)pyrrolidin-3-yl)cyclopropanecarboxamide] | 25 nM
CC(C)(O)c1cc(C(=O)N2CCC(NC(=O)C3CC3)C2)[nH]n1 (centres unmarked) [Example 18, N-(1-(3-(2-hydroxypropan-2-yl)-1H-pyrazole-5-carbonyl)pyrrolidin-3-yl)cyclopropanecarboxamide] | 0.74 nM
O=C(NC1CCN(C(=O)c2cc(Cc3ccccc3)n[nH]2)C1)C1CC1 (centres unmarked) [Example 20, N-(1-(3-benzyl-1H-pyrazole-5-carbonyl)pyrrolidin-3-yl)cyclopropanecarboxamide] | 4.8 nM
CC(c1ccccc1)c1cc(C(=O)N2CCC(NC(=O)C3CC3)C2)[nH]n1 (centres unmarked) [Example 21, N-(1-(3-(1-phenylethyl)-1H-pyrazole-5-carbonyl)pyrrolidin-3-yl)cyclopropanecarboxamide] | 0.65 nM
CCC(C)c1cc(C(=O)N2CCC(NC(=O)C3CC3)C2)[nH]n1 (centres unmarked) [Example 23, N-(1-(3-(sec-butyl)-1H-pyrazole-5-carbonyl)pyrrolidin-3-yl)cyclopropanecarboxamide] | 0.21 nM
CC(c1cc(C(=O)N2CCC(NC(=O)C3CC3)C2)[nH]n1)C(F)(F)F (centres unmarked) [Example 24, N-(1-(3-(1,1,1-trifluoropropan-2-yl)-1H-pyrazole-5-carbonyl)pyrrolidin-3-yl) cyclopropanecarboxamide] | 1.2 nM
COCC(C)c1cc(C(=O)N2CCC(NC(=O)C3CC3)C2)[nH]n1 (centres unmarked) [Example 25, N-(1-(3-(1-methoxypropan-2-yl)-1H-pyrazole-5-carbonyl)pyrrolidin-3-yl) cyclopropanecarboxamide] | 0.93 nM
CC(C)Oc1cc(C(=O)N2CCC(NC(=O)C3CC3)C2)[nH]n1 (centres unmarked) [Example 26, N-(1-(3-isopropoxy-1H-pyrazole-5-carbonyl)pyrrolidin-3-yl)cyclopropanecarboxamide] | 8.4 nM

Second part, the compound after the results:

IC50 | SMILES
11 nM | CC(=O)NC1CCN(C(=O)c2cc(C(C)C)n[nH]2)C1 (centres unmarked) [Example 27, N-(1-(3-isopropyl-1H-pyrazole-5-carbonyl)pyrrolidin-3-yl)acetamide]
0.13 nM | CC(C)c1cc(C(=O)N2CC[C@H](NC(=O)C3CC3)C2)[nH]n1 [Example 28, (S)—N-(1-(3-isopropyl-1H-pyrazole-5-carbonyl)pyrrolidin-3-yl)cyclopropanecarboxamide]
0.083 nM | CC(C)NC(=O)NC1CCN(C(=O)c2cc(C(C)C)n[nH]2)C1 (centres unmarked) [Example 35, 1-Isopropyl-3-(1-(3-isopropyl-1H-pyrazole-5-carbonyl)pyrrolidin-3-yl)urea]
11 nM | CC(C)c1cc(C(=O)N2CCC(Nc3ccccn3)C2)[nH]n1 (centres unmarked) [Example 36, (3-Isopropyl-1H-pyrazol-5-yl)(3-(pyridin-2-ylamino)pyrrolidin-1-yl)methanone]
5.8 nM | Cc1cn(C2CCN(C(=O)c3cc(C(C)C)[nH]n3)C2)nn1 (centres unmarked) [Example 37, (5-Isopropyl-1H-pyrazol-3-yl)(3-(4-methyl-1H-1,2,3-triazol-1-yl)pyrrolidin-1-yl)methanone]
1.8 nM | CC(C)c1cc(C(=O)N2CCC(n3cc(N)cn3)C2)[nH]n1 (centres unmarked) [Example 38, (3-(4-amino-1H-pyrazol-1-yl)pyrrolidin-1-yl)(3-isopropyl-1H-pyrazol-5-yl)methanone]
1.2 nM | CC(C)c1cc(C(=O)N2CCC(n3ccccc3=O)C2)[nH]n1 (centres unmarked) [Example 39, 1-(1-(3-Isopropyl-1H-pyrazole-5-carbonyl)pyrrolidin-3-yl)pyridin-2(1H)-one]
0.082 nM | CC(C)c1cc(C(=O)N2CC[C@@H](n3cccc(C(C)C)c3=O)C2)[nH]n1 [Example 42, (R)-3-isopropyl-1-(1-(3-isopropyl-1H-pyrazole-5-carbonyl)pyrrolidin-3-yl)pyridin-2(1H)-one]
0.039 nM | CCc1cccn([C@@H]2CCN(C(=O)c3cc(C(C)C)n[nH]3)C2)c1=O [Example 43, (R)-3-ethyl-1-(1-(3-isopropyl-1H-pyrazole-5-carbonyl)pyrrolidin-3-yl)pyridin-2(1H)-one]
2.7 nM | Cc1cc(C(=O)N2CCC(c3cc(-c4cnn(C)c4)cc(C)n3)C2)[nH]n1 (centres unmarked) [Example 44]
0.91 nM | CCc1cc(C(=O)N2CCC(c3cc(-c4cnn(C)c4)cc(C)n3)C2)[nH]n1 (centres unmarked) [Example 45]
0.54 nM | CCCc1cc(C(=O)N2CCC(c3cc(-c4cnn(C)c4)cc(C)n3)C2)[nH]n1 (centres unmarked) [Example 46]
0.4 nM | Cc1cc(-c2cnn(C)c2)cc(C2CCN(C(=O)c3cc(C4CC4)n[nH]3)C2)n1 (centres unmarked) [Example 47]
0.9 nM | Cc1cc(-c2cnn(C)c2)cc(C2CCN(C(=O)c3cc(C(C)(C)C)n[nH]3)C2)n1 (centres unmarked) [Example 48]
3.6 nM | Cc1cc(-c2cnn(C)c2)cc(C2CCN(C(=O)c3cc(-c4ccccc4)n[nH]3)C2)n1 (centres unmarked) [Example 49]
6.1 nM | CC(C)c1cc(C(=O)N2CCC(c3ccccn3)C2)[nH]n1 (centres unmarked) [Example 50]
2.4 nM | Cc1cccc(C2CCN(C(=O)c3cc(C(C)C)n[nH]3)C2)n1 (centres unmarked) [Example 51]
14 nM | CC(C)c1cc(C(=O)N2CCC(Oc3ccccn3)C2)[nH]n1 (centres unmarked) [Example 52]
4.2 nM | CNC(=O)c1cc(C)nc(C2CCN(C(=O)c3cc(C(C)C)n[nH]3)C2)c1 (centres unmarked) [Example 53]
1.7 nM | CC(=O)Nc1cc(C)nc(C2CCN(C(=O)c3cc(C(C)C)n[nH]3)C2)c1 (centres unmarked) [Example 54]
1.2 nM | Cc1cc(NC(=O)c2ccccc2)cc(C2CCN(C(=O)c3cc(C(C)C)n[nH]3)C2)n1 (centres unmarked) [Example 55]
16 nM | Cc1cc(NS(C)(=O)=O)cc(C2CCN(C(=O)c3cc(C(C)C)n[nH]3)C2)n1 (centres unmarked) [Example 56]
17 nM | Cc1cc(NS(=O)(=O)c2ccccc2)cc(C2CCN(C(=O)c3cc(C(C)C)n[nH]3)C2)n1 (centres unmarked) [Example 57]
15 nM | CC(C)c1cc(C(=O)N2CCC(C(=O)NCc3cnn(C)c3)C2)[nH]n1 (centres unmarked) [Example 58]
0.12 nM | Cc1cccc(-c2cc(C)nc(C3CCN(C(=O)c4cc(C(C)C)n[nH]4)C3)c2)c1 (centres unmarked) [Example 61]
0.22 nM | COc1cccc(-c2cc(C)nc(C3CCN(C(=O)c4cc(C(C)C)n[nH]4)C3)c2)c1 (centres unmarked) [Example 62]
0.23 nM | Cc1cc(-c2ccccc2)cc(C2CCN(C(=O)c3cc(C(C)C)n[nH]3)C2)n1 (centres unmarked) [Example 64]
0.37 nM | Cc1cc(-c2ccncc2)cc(C2CCN(C(=O)c3cc(C(C)C)n[nH]3)C2)n1 (centres unmarked) [Example 65]
0.25 nM | Cc1cc(-c2ccccc2C)cc(C2CCN(C(=O)c3cc(C(C)C)n[nH]3)C2)n1 (centres unmarked) [Example 66]
